Earlier results as cited in patent publication US20060205810A1, “Platinum therapeutic combinations” (Schering Corporation, priority 2004, published 2006).

How the values were obtained:
[1] = tested on: intrinsic and acquired resistance to cisplatin; conditions: cell culture studies
[2] = tested on: human ovarian carcinoma cells
[3] = tested on: small cell lung cancer (SCLC); conditions: small cell lung cancer patients
[4] = incubated with fresh human whole blood in vitro

SMILES: N.NC1CCCCC1.[Cl-].[Cl-].[Pt+2] [JM118]
- circumvention of resistance to cisplatin [1]: can partially circumvent intrinsic and acquired resistance to cisplatin
- cytotoxicity compared with cisplatin [2]: greater cytotoxicity than cisplatin

SMILES: CC(=O)[O][Pt]([NH2])([Cl])([Cl])([NH]C1CCCCC1)[O]C(C)=O [satraplatin]
- complete responses [3]: no complete responses
- median overall survival time [3]: 210 days
- tumor response rate ([3]; 10 of 26): 38%
- circumvention of resistance to cisplatin [1]: can partially circumvent intrinsic and acquired resistance to cisplatin
- added platinum associated with red blood cells [4]: 62%
- half-life for the disappearance of the drug [4]: 6.3 min
